Measurements from ChEMBL document CHEMBL1201862, “PubChem BioAssay data set” (2004).
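Values below derive from 48-hour exposures of cells grown in 96-well plates, with endpoints linearly interpolated between the two concentrations bracketing the appropriate inhibition level. GI50 marks 50% less growth.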 Activity calls are given as the source filed them. Rule as the data show it: active = GI50 up to about 1.1 µM and inactive = higher.

Experiments:
Assay in all cases: NCI tumour cell line growth inhibition, 48 h
SK-MEL-28 = test system: SK-MEL-28
SW-620 = test system: SW-620
HT-29 = test system: HT-29
COLO 205 = test system: COLO 205
M14 = test system: M14
HOP-62 = test system: HOP-62
SN12C = test system: SN12C
MOLT-4 = test system: MOLT-4
OVCAR-5 = test system: OVCAR-5
NCI-H226 = test system: NCI-H226
DU-145 = test system: DU-145
RXF 393 = test system: RXF 393
SNB-75 = test system: SNB-75
OVCAR-8 = test system: OVCAR-8
UO-31 = test system: UO-31
LOX IMVI = test system: LOX IMVI
UACC-257 = test system: UACC-257
SF-268 = test system: SF-268
SNB-19 = test system: SNB-19
Hs-578T = test system: Hs-578T
HOP-92 = test system: HOP-92
MCF7 = test system: MCF7
U-251 = test system: U-251
MDA-N = test system: MDA-N
OVCAR-3 = test system: OVCAR-3
SK-MEL-2 = test system: SK-MEL-2
OVCAR-4 = test system: OVCAR-4
KM12 = test system: KM12
786-0 = test system: 786-0
NCI/ADR-RES = test system: NCI/ADR-RES
CCRF-CEM = test system: CCRF-CEM
SK-OV-3 = test system: SK-OV-3
SF-539 = test system: SF-539
HCT-15 = test system: HCT-15
K562 = test system: K562
RPMI-8226 = test system: RPMI-8226
SK-MEL-5 = test system: SK-MEL-5
MDA-MB-435 = test system: MDA-MB-435
UACC-62 = test system: UACC-62
NCI-H522 = test system: NCI-H522
SF-295 = test system: SF-295
CAKI-1 = test system: CAKI-1
TK-10 = test system: TK-10
EKVX = test system: EKVX
IGROV-1 = test system: IGROV-1
HCC 2998 = test system: HCC 2998
NCI-H23 = test system: NCI-H23
T47D = test system: T47D
NCI-H460 = test system: NCI-H460
A498 = test system: A498
MDA-MB-231 = test system: MDA-MB-231
PC-3 = test system: PC-3
HCT-116 = test system: HCT-116
HL-60 = test system: HL-60
A549 = test system: A549
ACHN = test system: ACHN
SR = test system: SR
BT-549 = test system: BT-549

In the case of `NNC(=O)CSc1nc2ccc(I)cc2c(=O)n1Cc1ccccc1`, the GI50 (SK-MEL-28) is reported as 28.4 µM (inactive), the GI50 (SW-620) is reported as 33 µM (inactive) and the GI50 (HT-29) is reported as 21.7 µM (inactive). The GI50 (COLO 205) was 21.5 µM (inactive), the GI50 (M14) was 18.2 µM (inactive) and the GI50 (HOP-62) was 19 µM (inactive). The GI50 (SN12C) was 21.3 µM (inactive), the GI50 (MOLT-4) was 15 µM (inactive) and the GI50 (OVCAR-5) was 20.4 µM (inactive). For the same compound, the GI50 (NCI-H226) was 18.8 µM (inactive), the GI50 (DU-145) was 31.2 µM (inactive) and the GI50 (RXF 393) was 13.1 µM (inactive). For the same compound, the GI50 (SNB-75) was 22.9 µM (inactive), the GI50 (OVCAR-8) was 48.4 µM (inactive) and the GI50 (UO-31) was 15.9 µM (inactive). The GI50 (LOX IMVI) was 15.6 µM (inactive), the GI50 (UACC-257) was 19.9 µM (inactive) and the GI50 (SF-268) was 17.5 µM (inactive). For the same compound, the GI50 (SNB-19) was 23.3 µM (inactive), the GI50 (Hs-578T) was 20.9 µM (inactive) and the GI50 (HOP-92) was 30.5 µM (inactive). For the same compound, the GI50 (MCF7) was 22.2 µM (inactive), the GI50 (U-251) was 20.3 µM (inactive) and the GI50 (MDA-N) was 31.8 µM (inactive). For the same compound, the GI50 (OVCAR-3) was 18.4 µM (inactive), the GI50 (SK-MEL-2) was 20.4 µM (inactive) and the GI50 (OVCAR-4) was 19.5 µM (inactive). The GI50 (KM12) was 23.5 µM (inactive), the GI50 (786-0) was 15.6 µM (inactive) and the GI50 (NCI/ADR-RES) was 40.6 µM (inactive). For the same compound, the GI50 (CCRF-CEM) was 3.89 µM (inactive), the GI50 (SK-OV-3) was 15.7 µM (inactive) and the GI50 (SF-539) was 19.7 µM (inactive). The GI50 (HCT-15) was 36.6 µM, the GI50 (K562) was 26.1 µM (inactive) and the GI50 (RPMI-8226) was 21.6 µM (inactive). For the same compound, the GI50 (SK-MEL-5) was 17.2 µM (inactive), the GI50 (MDA-MB-435) was 35.2 µM (inactive) and the GI50 (UACC-62) was 18.6 µM (inactive). For the same compound, the GI50 (NCI-H522) was 14.9 µM (inactive), the GI50 (SF-295) was 21.9 µM (inactive) and the GI50 (CAKI-1) was 15.3 µM (inactive). The GI50 (TK-10) was 16.9 µM (inactive), the GI50 (EKVX) was 13.1 µM (inactive) and the GI50 (IGROV-1) was 24.4 µM (inactive). For the same compound, the GI50 (HCC 2998) was 16.8 µM (inactive), the GI50 (NCI-H23) was 31.5 µM (inactive) and the GI50 (T47D) was 22.5 µM (inactive). The GI50 (NCI-H460) was 18.8 µM (inactive), the GI50 (A498) was 14.2 µM (inactive) and the GI50 (MDA-MB-231) was 14.3 µM (inactive). For the same compound, the GI50 (PC-3) was 22.8 µM (inactive), the GI50 (HCT-116) was 18.4 µM (inactive) and the GI50 (HL-60) was 20.6 µM (inactive). The GI50 (A549) was 24.3 µM (inactive), the GI50 (ACHN) was 18.7 µM (inactive) and the GI50 (SR) was 26.5 µM (inactive). For the same compound, the GI50 (BT-549) was 23.2 µM (inactive).
With `CC1(C)C=C(/C=C2/N(S(=O)(=O)C(F)(F)F)C(/C=C3/N(S(=O)(=O)C(F)(F)F)C(C)(C#N)CC3(C)C)=CC2(C)C)N=C1/C=C1/CC(C)(C)C(=O)N1` (stereo unspecified) the GI50 (SK-MEL-28) was 51.2 µM (inactive), the GI50 (SW-620) was 6.93 µM (inactive) and the GI50 (HT-29) was 16.8 µM (inactive). The GI50 (COLO 205) was 14.2 µM (inactive), the GI50 (M14) was 29.3 µM (inactive) and the GI50 (HOP-62) was 9.44 µM (inactive). For the same compound, the GI50 (SN12C) was 22.3 µM (inactive), the GI50 (MOLT-4) was 2.84 µM (inactive) and the GI50 (OVCAR-5) was 57.5 µM (inactive). The GI50 (NCI-H226) was 22.7 µM (inactive), the GI50 (DU-145) was 33.9 µM (inactive) and the GI50 (RXF 393) was 18.6 µM (inactive). The GI50 (SNB-75) was 61.5 µM (inactive), the GI50 (OVCAR-8) was 4.57 µM (inactive) and the GI50 (UO-31) was 35.8 µM (inactive). For the same compound, the GI50 (LOX IMVI) was 17.9 µM (inactive), the GI50 (UACC-257) was 20.6 µM (inactive) and the GI50 (SF-268) was 5.79 µM (inactive). For the same compound, the GI50 (SNB-19) was 52.5 µM (inactive), the GI50 (Hs-578T) was 16.2 µM (inactive) and the GI50 (HOP-92) was 24.7 µM (inactive). For the same compound, the GI50 (MCF7) was 9.29 µM (inactive), the GI50 (U-251) was 24.7 µM (inactive) and the GI50 (MDA-N) was 21.4 µM (inactive). The GI50 (OVCAR-3) was 7.62 µM (inactive), the GI50 (SK-MEL-2) was 29.5 µM (inactive) and the GI50 (OVCAR-4) was 7.38 µM (inactive). For the same compound, the GI50 (KM12) was 5.77 µM (inactive), the GI50 (786-0) was 20.7 µM (inactive) and the GI50 (NCI/ADR-RES) was 23.3 µM (inactive). The GI50 (CCRF-CEM) was 2.84 µM (inactive), the GI50 (SK-OV-3) was 45.7 µM (inactive) and the GI50 (SF-539) was 24.8 µM (inactive). For the same compound, the GI50 (HCT-15) was 6.05 µM, the GI50 (K562) was 3.11 µM (inactive) and the GI50 (RPMI-8226) was 3.93 µM (inactive). For the same compound, the GI50 (SK-MEL-5) was 13.8 µM (inactive), the GI50 (MDA-MB-435) was 15 µM (inactive) and the GI50 (UACC-62) was 14.4 µM (inactive). The GI50 (NCI-H522) was 5.96 µM (inactive), the GI50 (SF-295) was 14.3 µM (inactive) and the GI50 (CAKI-1) was 11.4 µM (inactive). The GI50 (TK-10) was 71.9 µM (inactive), the GI50 (EKVX) was 8.45 µM (inactive) and the GI50 (IGROV-1) was 7.24 µM (inactive). For the same compound, the GI50 (HCC 2998) was 35.2 µM (inactive), the GI50 (NCI-H23) was 18.8 µM (inactive) and the GI50 (T47D) was 6.07 µM (inactive). The GI50 (NCI-H460) was 20.8 µM (inactive), the GI50 (A498) was 55.6 µM (inactive) and the GI50 (MDA-MB-231) was 23.1 µM (inactive). For the same compound, the GI50 (PC-3) was 5.71 µM (inactive), the GI50 (HCT-116) was 3.73 µM (inactive) and the GI50 (HL-60) was 1.41 µM (inactive). The GI50 (A549) was 32.8 µM (inactive), the GI50 (ACHN) was 23.7 µM (inactive) and the GI50 (SR) was 2.8 µM (inactive). The GI50 (BT-549) was 27.2 µM (inactive).
